The target of experiment [1] is T1, ACAT2 (Homo sapiens, UniProt O75908).
T1 sequence (O75908 1-522): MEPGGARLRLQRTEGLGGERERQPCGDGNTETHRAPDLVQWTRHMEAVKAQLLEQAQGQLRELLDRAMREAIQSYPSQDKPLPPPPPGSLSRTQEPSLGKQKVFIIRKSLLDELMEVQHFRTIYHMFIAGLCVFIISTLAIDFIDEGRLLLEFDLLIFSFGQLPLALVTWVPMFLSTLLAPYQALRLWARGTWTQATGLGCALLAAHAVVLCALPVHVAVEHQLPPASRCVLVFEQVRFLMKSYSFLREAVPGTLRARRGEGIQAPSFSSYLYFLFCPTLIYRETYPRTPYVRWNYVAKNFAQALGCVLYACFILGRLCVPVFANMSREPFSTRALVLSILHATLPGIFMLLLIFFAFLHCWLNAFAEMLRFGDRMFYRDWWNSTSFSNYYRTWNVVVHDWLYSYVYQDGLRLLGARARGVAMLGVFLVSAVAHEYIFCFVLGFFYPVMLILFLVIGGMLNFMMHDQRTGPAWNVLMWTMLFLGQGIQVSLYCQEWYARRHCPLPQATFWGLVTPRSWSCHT
More on the design: IC50 ACAT2. The following applies: cited from earlier work.

For experiment [2], the system named is IL-4Rα. Nature of the experiment: IL-4Rα expression in N9 microglia (immunoblot). In kind it is cell-based, mouse. As for the experimental part:
Cells were harvested for immunoblot analysis for IL-4Rα. Vinculin was the loading control. Data expressed as mean+/−SEM, * p<0.05, ** p<0.01.
(§1) IL-4Rα expression was determined by convention methods. 25 μg/mL cholesterol equals 38 μg/mL total myelin debris protein. Data are expressed as mean±SEM. *P<0.05; **P<0.01.
In microglia, various cholesterol-rich agents including myelin debris and damaged cell membranes enter the cells. […] In addition, the effects of ACAT1 blockade were tested in N9 and the human microglia-like cell line HMC3, which both express normal TREM-2 receptors.

The test system of experiment [3] is IL-4Rα. Put plainly: IL-4Rα expression in HMC3 microglia (western blot). The following applies: for IL-4Rα protein content: human myelin debris-treated HMC3 cells, 48 hours co-incubation. Type of experiment: cell-based, human. As for the experimental part: as §1
[…] Protein was isolated and analyzed by western blot analysis. Vinculin was the loading control. […] Data are expressed as mean±SEM. *P<0.05; **P<0.01.
(§2) Subsequently, myelin debris from human brains was prepared and it was observed that the cholesterol/protein ratio, as well as the protein composition between mouse myelin debris and human myelin debris, were very similar.

The test system of the next experiment is N9 microglial cells. Nature of the experiment: inflammatory responses to LPS in N9 microglial cells (qPCR, IκB-α western blot). Type of experiment: cell-based, mouse. The following applies: 0.5 μM for 4 hours, then 10, 100 or 1000 ng/mL LPS. As for the experimental part: Cells were seeded at 1×10^5/well onto 12-well plates in RPMI-1640 with 10% bovine calf serum. […] Six hours later, mRNA was extracted, and qPCR was performed to monitor pro-inflammatory (FIG. 5A) or anti-inflammatory (FIG. 5B) gene expression. […] Thirty minutes later, proteins were extracted for western blot analysis for total IκB-α, and for phosphorylated IκB-α (p-IκB-α). *P<0.05; ** P<0.01.
It has now been shown that, in microglia, genetic inactivation of Acat1 suppresses certain pro-inflammatory response genes (FIG. 4A and FIG. 4C, e.g., IL-1β, iNOS, MCP1, Cxc19, Cxc110 and IL-6) and induces certain anti-inflammatory response genes (FIG. 4B and FIG. 4D, e.g., YM1) in the hippocampus (FIG. 4A and FIG. 4B) and cortex (FIG. 4C and FIG. 4D).

A further experiment relates to ABCA1. Put plainly: ABCA1 protein content in human myelin debris-treated HMC3 cells. Type of experiment: cell-based. The conditions noted are these: human myelin debris at 25 μg/mL cholesterol, 0.5 μM inhibitor, 24 hours. As for the experimental part: Afterward, cells were harvested for western blot analyses. Lysates of HEK293 cells and lysates of HMC3 cells treated with 10 μM LXR agonist T0901317 for 24 hours were respectively used as negative and positive controls for ABCA1 signals. […] Data are expressed as mean±SEM.
as §2

The subject of experiment [4] is mouse model for Alzheimer's Disease. The conditions noted are these: in vivo; cited from earlier work.
Experiment [5] concerns the target T2, human ACAT1 (Homo sapiens, UniProt P35610).
T2 sequence (P35610 1-550): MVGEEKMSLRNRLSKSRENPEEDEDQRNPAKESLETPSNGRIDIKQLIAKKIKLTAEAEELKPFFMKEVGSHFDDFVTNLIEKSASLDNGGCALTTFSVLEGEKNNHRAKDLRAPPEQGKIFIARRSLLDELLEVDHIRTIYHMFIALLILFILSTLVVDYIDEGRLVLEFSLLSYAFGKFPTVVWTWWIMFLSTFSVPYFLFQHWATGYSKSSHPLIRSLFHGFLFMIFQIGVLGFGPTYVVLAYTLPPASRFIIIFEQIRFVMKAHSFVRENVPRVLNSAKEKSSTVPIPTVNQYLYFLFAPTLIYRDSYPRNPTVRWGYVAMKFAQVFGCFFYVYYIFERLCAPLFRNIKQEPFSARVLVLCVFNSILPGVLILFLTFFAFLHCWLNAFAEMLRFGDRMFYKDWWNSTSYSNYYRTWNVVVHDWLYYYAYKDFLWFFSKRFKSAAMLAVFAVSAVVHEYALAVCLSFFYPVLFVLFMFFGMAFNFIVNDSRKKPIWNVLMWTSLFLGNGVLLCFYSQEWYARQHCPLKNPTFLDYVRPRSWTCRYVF
Put plainly: mixed liposome ACAT1 assay.
Description: In vitro Mixed Liposomal ACAT Activity Assay. […] Lysed cells were collected and aliquoted into pre-chilled tubes containing the liposomal mixture of taurocholate, phosphatidylcholine, and cholesterol. Tubes were vortexed and kept on ice for 5 minutes. Samples were then incubated in a 37° C. shaking water bath with ^3H-oleoyl CoA added for 10 minutes. The assay was stopped by adding CHCl3:MeOH (2:1). Lipids were extracted and analyzed by the same TLC method described herein.

In experiment [6] the target is T1, ACAT2. The following applies: at 1 mM; cited from earlier work.
In the next experiment the test system is ACAT1. Nature of the experiment: ACAT1 inhibition, literature values. The conditions noted are these: ratio of IC50 values ACAT2/ACAT1. In kind it is biochemical, human. An excerpt: Cholesterol is stored as cholesteryl esters. For cholesterol esterification, there are two Acyl-CoA:Cholesterol Acyltransferase (ACAT) genes, SOAT1 and SOAT2, encoding two homologous but distinct enzymes, ACAT1 and ACAT2. Both enzymes use long-chain fatty acyl-CoAs and sterols with 3-beta-OH, including cholesterol and various oxysterols as their substrates. ACAT1 is the major cholesterol storage enzyme in the brain.
Biophys. Res. Comm. […] Here, the ACAT activity was monitored using the ACAT enzyme assay in vitro.

Experiment [7] deals with T2, human ACAT1. The following applies: cited from earlier work.

Regarding `CCCC[C@H](C)[C@@H]1CC(=O)N[C@@H](Cc2ccccc2)C(=O)N[C@@H](C)C(=O)N[C@H](CC(C)C)C(=O)O1` [Beauveriolide I], on ACAT2 [1], the IC50 was 20 µM.

For the compound `CSc1cc(C)nc(SC)c1NC(=O)CN1CCN(CCSc2nc3ccccc3[nH]2)CC1` [K-604], the IL-4Rα expression result in the experiment with IL-4Rα [2] (N9 cells, 0.5 μM for 4 or 12 hours) was “increases expression of the receptor IL-4Rα”; with IL-4Rα [2] (mouse myelin debris-treated N9 cells, 21 hours), “upregulates IL-4Rα expression”; in the experiment on IL-4Rα [3] (mouse myelin debris-treated HMC3 cells, 21 hours), “upregulates IL-4Rα expression”. For the same compound, the IL-4Rα protein content entry in the experiment on IL-4Rα [3] is “IL-4Rα protein content increases”. The “inflammatory responses to LPS” value in the experiment on N9 microglial cells is listed as “attenuates inflammatory responses to LPS”. The ABCA1 protein content result in the experiment on ABCA1 is given as “increased significantly”.

In the case of `CC(C)c1cccc(C(C)C)c1NC(=O)CC(=O)C(Cc1ccccc1)Cc1ccc(O)cc1` (centres unmarked) [Compound 1B], on ACAT2 [1], the IC50 is 1.5 µM.

In the case of `CCCCCCCCC(=O)Nc1ccccc1-c1ccccc1` [compound 2], the IC50 at ACAT2 [1] is 414 µM.

As to `CC(C)c1cc(C(C)C)c(CC(=O)NS(=O)(=O)Oc2c(C(C)C)cccc2C(C)C)c(C(C)C)c1` [CI 1011], the “amyloidopathy / cognitive deficits in mouse model for AD” value in experiment [4] is on record as “reduce amyloidopathy”.

Regarding `CCCCCCCCCCCCS(=O)(=O)[C@](F)(C(=O)Nc1cc(C)c(O)c(C)c1C)c1ccccc1` [F26], the EC50 on human ACAT1 [5] was 0.0058 µM. Also, the “potency relative to F12511 as ACAT1 inhibitor” value at human ACAT1 [5] (ratio of EC50 values) was around 7 times.

For `CCCCCCCC[C@H](SCCCCCC)C(=O)Nc1c(SC)cc(C)nc1SC` [CP113,818], the “amyloidopathy / cognitive deficits in mouse model for AD” value in experiment [4] is “reduce amyloidopathy and rescue cognitive deficits”.

As for `CC(C)c1cccc(C(C)C)c1NC(=O)CC(=O)C(Cc1ccccc1)Cc1ccc(OC(=O)CCCCCCN2CCCCCC2=O)cc1` (centres unmarked) [Compound 1C], at ACAT2 [1], the IC50 was 0.53 µM.

In the case of `CCCCCCCC(=O)Nc1ccccc1-c1ccccc1` [compound 1], on ACAT2 [1], the IC50 was 230 µM.

As for `CCCCCCCCCCCCS[C@H](C(=O)Nc1cc(C)c(O)c(C)c1C)c1ccccc1` [F12511], at ACAT2 [1], the IC50 was 0.11 µM. The IL-4Rα protein content result in the experiment with IL-4Rα [3] is reported as “IL-4Rα protein content increases”. The ABCA1 protein content entry with ABCA1 was “increased significantly”.

For the compound `CCCCCCCCC(=O)Nc1cc(-c2ccccc2)nn1-c1ccccc1` [compound 14], on ACAT2 [1], the IC50 is 75 µM.

As to `COc1ccc([C@@H](O)[C@@H](C)Oc2ccc([C@H]3O[C@H](c4ccc(O[C@H](C)[C@H](O)c5ccc6c(c5)OCO6)c(OC)c4)[C@H](C)[C@H]3C)cc2OC)cc1OC` [manassantin B], the “inhibition of hACAT-2” value at ACAT2 [6] is 32%.

With `CCCCCCCCCNc1cc(-c2ccccc2)nn1-c1ccccc1` [compound 16], on ACAT2 [1], the IC50 was 97 µM.

Take Saucerneol B: the IC50 at ACAT2 [1] was 124 µM.

Take `CCOC(=O)OC(=O)OCC` [diethyl pyrocarbonate]: the IC50 is 170 µM at ACAT2 [1] and 44 µM on human ACAT1 [7]. In the experiment on ACAT1, the “selectivity for ACAT1 over ACAT2” value was 4 fold.

As to `CCCCCCCC(=O)Nc1cc(-c2ccccc2)nn1-c1ccccc1` [compound 13], on ACAT2 [1], the IC50 is 53 µM.

The values are drawn from patent publication US20240325327A1, “METHOD FOR ATTENUATING NEUROINFLAMMATION, AMYLOIDOPATHY AND TAUOPATHY” (Trustees of Dartmouth College, priority 2023, published 2024).
